Assay results from article PMC12040169 (PLOS Biology, 2025).

Assay: in vitro
Settings: human, hela cells, % viability

| Structure (SMILES) | viability at 28.5 h, 10 µM [%] | viability at 28.5 h, 10 µM (bulk resorufin, single well) [%] |
| --- | --- | --- |
| O=C(O)COCC(=O)N1CCCC(c2nc(-c3ccccc3)c3ccccn23)C1 (centres unmarked) [CBK046806] | 86.1 |  |
| Cc1ccc(-c2nc(C3CCN(C(=O)NC(C)C)CC3)n3ccccc23)cc1 [CBK046861] | 95 |  |
| O=C(NC(=O)N1CCC2(CC1)NCCc1c2[nH]c2ccc(O)cc12)c1ccccc1 [CBK046936] | 87.4 |  |
| O=C(O)c1ccccc1C(=O)N1CCC2(CC1)OCCc1c2[nH]c2ccccc12 [CBK046981] | 94.9 |  |
| O=C(NC(=O)N1CCC2(C1)NCCc1c2[nH]c2ccccc12)c1ccccc1 (centres unmarked) [CBK046985] | 94.2 |  |
| C/C(C(=O)O)=C(/C)C(=O)N1CCC2(C1)NCCc1c2[nH]c2ccccc12 (centres unmarked) [CBK046995] | 100 |  |
| COc1ccc2[nH]c3c(c2c1)CCNC31CCN(C(=O)NC(C)(C)C)CC1 [CBK047069] | 97.4 |  |
| COc1ccc(-c2nc(C3CCN(C(=O)NC(C)(C)C)CC3)n3ccccc23)cc1 [CBK047080] | 97.4 |  |
| C[C@H](NC(=O)N1CCC(c2nc(-c3ccccc3)c3ccccn23)CC1)c1ccccc1 [CBK047086] | 92.7 |  |
| Cc1ccc(CNC(=O)N2CCC3(CC2)OCCc2c3[nH]c3ccccc23)cc1 [CBK047121] | 93.3 |  |
| COc1ccccc1-c1nc(C2CCCN(C(=O)NCCc3cccs3)C2)n2ccccc12 (centres unmarked) [CBK047163] | 95.5 |  |
| Cc1ccc2[nH]c3c(c2c1)CCNC31CCN(C(=O)CC(C)CC(=O)O)CC1 (centres unmarked) [CBK047196] | 109 |  |
| COc1ccc2[nH]c3c(c2c1)CCOC31CCN(C(=O)CC(C)CC(=O)O)CC1 (centres unmarked) [CBK047197] | 100 |  |
| COc1ccc2c(c1)CC(=O)NC21CCN(C(=O)CCCC(=O)O)CC1 [CBK047208] | 90.3 |  |
| O=C1Cc2cc3ccccc3cc2C2(CCN(C(=O)c3ccccc3C(=O)O)CC2)N1 [CBK047216] | 94.8 |  |
| Cc1ccc2[nH]c3c(c2c1)CCNC31CCN(C(=O)[C@@H]2CCCC[C@@H]2C(=O)O)CC1 [CBK047222] | 89.9 |  |
| O=C(Nc1cccc(Cl)c1)N1CCCC(c2nc(-c3ccccc3)c3ccccn23)C1 (centres unmarked) [CBK047233] | 90.4 |  |
| O=C(O)c1ccccc1C(=O)N1CCC2(CC1)NCCc1c2[nH]c2ccccc12 [CBK047235] | 83.9 |  |
| Cc1ccc(-c2nc(C3CCCN(C(=O)NC4CCCCC4)C3)n3ccccc23)cc1 (centres unmarked) [CBK047241] | 94.4 |  |
| COc1ccc2c(c1)CC(=O)NC21CCN(C(=O)NC(C)C)CC1 [CBK047261] | 95.7 |  |
| COc1cc2c(cc1OC)C1(CCN(C(=O)Nc3ccc(F)cc3F)CC1)NC(=O)C2 [CBK047264] | 84.8 |  |

| Structure (SMILES) | viability at 28.5 h, 10 µM [%] | viability at 28.5 h, 10 µM (bulk resorufin, single well) [%] |
| --- | --- | --- |
| COc1cc2c(c(OC)c1OC)CC(=O)NC21CCN(C(=O)CC(C)CC(=O)O)CC1 (centres unmarked) [CBK047265] | 94.8 |  |
| CC(NC(=O)N1CCC2(CC1)NC(=O)Cc1ccccc12)c1cccc2ccccc12 (centres unmarked) [CBK047280] | 84 |  |
| COc1ccccc1NC(=O)N1CCC2(CC1)NC(=O)Cc1cc3ccccc3cc12 [CBK047284] | 92.1 |  |
| O=C1Cc2ccccc2C2(CCN(C(=O)NCc3cccc(F)c3)CC2)N1 [CBK047288] | 81 |  |
| COc1cc2c(c(OC)c1OC)CC(=O)NC21CCN(C(=O)NC(C)(C)C)CC1 [CBK047301] | 94.2 |  |
| CCOC(=O)c1[nH]c2ccccc2c1NS(=O)(=O)c1ccc(Br)cc1 [CBK047409] | 116 |  |
| CCOC(=O)c1[nH]c2ccccc2c1NS(=O)(=O)Cc1ccccc1[N+](=O)[O-] [CBK047426] | 94.7 |  |
| CNC(=O)c1cc(-c2cccc(C)c2)oc1C [CBK047432] | 80.3 |  |
| CCOC(=O)c1sc(NS(=O)(=O)Cc2ccccc2)nc1C [CBK047448] | 105 |  |
| CN1CCN(CC(=O)Nc2cc(N3CCOCC3)ccc2[N+](=O)[O-])CC1 [CBK047475] | 92.9 |  |
| Cc1oc(-c2ccccc2)nc1C(=O)O [CBK047490] | 98.4 |  |
| CCOC(=O)c1ccccc1NC(=O)N[C@@H]1CC[C@@]2(c3ccc(OC)c(OC)c3)CCN(C)[C@H]2C1 [CBK047494T] | 94.9 |  |
| C[C@H]1CNCCN1c1nccnc1Cl [CBK047524F] | 88 |  |
| COc1ccc([C@@]23CC[C@@H](NC(=O)Nc4ccccc4C#N)C[C@@H]2N(C)CC3)cc1OC [CBK047540T] | 96.1 |  |
| COc1ccc([C@@]23CCC(NC(=O)Nc4ccc5c(c4)Cc4ccccc4-5)C[C@@H]2N(C)CC3)cc1OC (some centres unmarked) [CBK047550T] | 85.9 |  |
| COc1ccc([C@@]23CCC(NC(=O)Nc4ccc(OCc5ccccc5)cc4)C[C@@H]2N(C)CC3)cc1OC (some centres unmarked) [CBK047551T] | 105 |  |
| Cc1oc(-c2ccc(Cl)cc2)cc1C(=O)CC#N [CBK047603] | 85.4 |  |
| CN(C)C(=O)c1ccc(Cn2nc(C(=O)NCCOc3ccccc3)c3ccccc32)cc1 [CBK047700] | 91.7 |  |
| CN(C)C(=O)c1ccc(Cn2nc(C(=O)NC3CC3)c3ccccc32)cc1 [CBK047720] |  | 93.1 |
| Cc1ccc(Cn2nc(C(=O)NCc3ccncc3)c3ccccc32)cc1 [CBK047832] |  | 82.7 |
| Cc1ccc(Cn2nc(C(=O)Nc3ccccn3)c3ccccc32)cc1 [CBK047839] |  | 105 |

| Structure (SMILES) | viability at 28.5 h, 10 µM [%] | viability at 28.5 h, 10 µM (bulk resorufin, single well) [%] |
| --- | --- | --- |
| CONC(=O)c1nn(Cc2ccc(C)cc2)c2ccccc12 [CBK047848] |  | 79.6 |
| O=C(Nc1ccc2c(c1)OC(F)(F)O2)c1nn(Cc2ccc(-c3csnn3)cc2)c2ccccc12 [CBK047877] |  | 86.8 |
| COc1ccc(Cn2nc(C(=O)NCc3ccco3)c3ccccc32)cc1 [CBK047883] |  | 63.3 |
| COc1ccc(Cn2nc(C(=O)Nc3nnc(C(F)(F)F)s3)c3ccccc32)cc1 [CBK047884] |  | 99.3 |
| C#CCNC(=O)c1nn(Cc2ccc(S(=O)(=O)N(C)OC)cc2)c2ccccc12 [CBK047985] | 96.2 |  |
| COc1ccc(Cn2nc(NS(=O)(=O)c3ccc(-c4ccon4)s3)c3ccccc32)cc1 [CBK048031] | 92.9 |  |
| COc1cccc(S(=O)(=O)Nc2nn(Cc3ccc(C)cc3)c3ccccc23)c1 [CBK048043] | 89.8 |  |
| O=S(=O)(Nc1nn(Cc2ccc(C(F)(F)F)cc2)c2ccccc12)c1cccc2nsnc12 [CBK048086] | 94.8 |  |
| COc1ccc(Cn2nc(NC(C)=O)c3ccccc32)cc1 [CBK048200] | 109 |  |
| Cc1ccc(Cn2nc(NC(=O)c3cc(C)on3)c3ccccc32)cc1 [CBK048215] | 90.8 |  |
| COc1ccc(Cn2nc(NC(=O)c3cnc4ccccc4n3)c3ccccc32)cc1 [CBK048343] | 93 |  |
| COc1ccc(Cn2nc(NC(=O)c3cn(C)c4ccccc34)c3ccccc32)cc1 [CBK048344] | 57.2 |  |
| O=C(Cc1ccc2c(c1)OCO2)Nc1nn(Cc2ccc(C(F)(F)F)cc2)c2ccccc12 [CBK048401] | 115 |  |
| CCc1cc(OCc2ccc(Cn3nc(NC(C)=O)c4ccccc43)cc2)c2ccccc2n1 [CBK048402] | 91 |  |
| Cc1ccc(Cn2nc(NC(=O)Oc3ccccc3)c3ccccc32)cc1 [CBK048407] |  | 84.2 |
| COCCOc1cccc(OCCOc2nccnc2N2CCNC[C@H]2C)c1 [CBK048435] | 104 |  |
| O=C(NCc1ccco1)c1nn(-c2nc3ccccc3s2)c2ccccc12 [CBK048482] | 97.4 |  |
| C#CCNC(=O)c1nn(-c2nc3ccccc3s2)c2ccccc12 [CBK048486] | 99.2 |  |
| Cc1cc(NC(=O)c2nn(-c3nc4ccccc4s3)c3ccccc23)no1 [CBK048489] | 95.4 |  |
| O=C(NCCOc1ccccc1)c1nn(-c2ncccn2)c2ccccc12 [CBK048494] | 81 |  |
| O=C(NCCc1c[nH]c2ccccc12)c1nn(-c2ncccn2)c2ccccc12 [CBK048496] | 77.7 |  |

| Structure (SMILES) | viability at 28.5 h, 10 µM [%] | viability at 28.5 h, 10 µM (bulk resorufin, single well) [%] |
| --- | --- | --- |
| O=C(NCc1ccncc1)c1nn(-c2ncccn2)c2ccccc12 [CBK048498] | 93.1 |  |
| O=C(NC1CC1)c1nn(-c2ncccn2)c2ccccc12 [CBK048508] | 88 |  |
| O=C(Nc1ccc(OC(F)(F)F)cc1)c1nn(-c2ncccn2)c2ccccc12 [CBK048510] | 98.9 |  |
| O=C(Nc1ccon1)c1nn(-c2ncccn2)c2ccccc12 [CBK048513] | 95.3 |  |
| COc1ccc(Cn2nc(NC(=O)Nc3c(C)noc3C)c3ccccc32)cc1 [CBK048528] | 88.9 |  |
| COc1ccc(Cn2nc(NC(=O)Nc3ccc(N(C)C)cc3)c3ccccc32)cc1 [CBK048529] | 90 |  |
| CN(C)C(=O)c1ccc(Cn2nc(NC(=O)OCc3ccccc3)c3ccccc32)cc1 [CBK048578] | 89.6 |  |
| COc1ccc(OC(=O)Nc2nn(Cc3ccc(C#N)cc3)c3ccc(C)cc23)cc1 [CBK048654] |  | 74.4 |
| CS(=O)(=O)Nc1nccnc1N1CCN(c2ccccc2)CC1 [CBK048688] | 91.8 |  |
| COc1cc(OC)nc(N2CCN(c3nccnc3NS(=O)(=O)C3CC3)CC2)n1 [CBK048698] | 109 |  |
| O=S(=O)(Nc1nccnc1N1CCN(c2ccccc2)CC1)c1ccc(F)cc1 [CBK048706] | 94.2 |  |
| CCCS(=O)(=O)Nc1nccnc1N1CCN(c2ccc3c(c2)OCO3)CC1 [CBK048824] | 93.6 |  |
| CCCS(=O)(=O)Nc1nccnc1N1CCN(c2cnccn2)CC1 [CBK048828] | 85.5 |  |
| Cc1cc(C)cc(NC(=O)N2CCN(c3nccnc3NS(C)(=O)=O)CC2)c1 [CBK048877] | 105 |  |
| CNC(=S)N1CCN(c2nccnc2NS(=O)(=O)Cc2ccccc2)CC1 [CBK049044] | 102 |  |
| COCc1ccc(-c2nccnc2NS(C)(=O)=O)cc1 [CBK049631] | 101 |  |
| O=S(=O)(Nc1nccnc1N1CCN(c2cnccn2)CC1)c1ccc(Cl)cc1 [CBK049664] | 88.1 |  |
| COc1cc([C@@]23CCC(=O)C[C@@H]2N(C)CC3)ccc1OCc1ccccc1 [CBK049727] | 106 |  |
| COc1ccccc1CN(CC1CCNCC1)C(=O)NC(c1ccccc1)c1ccccc1 [CBK049741] | 115 |  |
| O=C(Nc1ccccc1C(F)(F)F)N(Cc1ccccc1C(F)(F)F)CC1CCNCC1 [CBK049744] | 112 |  |
